Results: patent publication US12324841B2, “Methods of treating cancer with a combination of an anti-PD-1 antibody and an anti-tissue factor antibody-drug conjugate” (GENMAB A/S, priority 2018, dated 2025)
Entries after “also recorded” stand apart in the source; their conditions may differ.

Key:
[1] = system: MDA-MB-231 cells (breast adenocarcinoma); experiment: MDA-MB-231 xenograft model in humanized NSG mice; format: in vivo; settings: IV, weekly
Protocol: Mice were subcutaneously inoculated with 5×10^6 MDA-MB-231 cells (breast adenocarcinoma; American Tissue Culture Collection (ATCC), cat. no. HTB-26), in 100 μL phosphate-buffered saline (PBS). Before inoculation, cells were cultured in DMEM with high glucose and HEPES without L-glutamine (Lonza, cat. no. BE12-[…]), 10% (v/v) donor bovine serum with iron New Zealand Origin (Thermo Fisher Scientific, DBSI, cat. no. 10371-029), 2 mM L-glutamine (Lonza, cat. no. BE17-[…]), 1 mM Na-pyruvate (Lonza, cat. no. BE13-[…]), MEM non-essential amino acids (Life Technologies, cat. no. 11140) and 1% (v/v) penicillin/streptomycin (Lonza, cat. no. DE17-[…]), in CellSTACK culture chambers (Corning, cat. no. 3313). Tumor size was determined by caliper measurement at least two times a week and tumor volume was calculated as 0.52×length×width^2. […] The first dose of the anti-PD-1 antibody (i.e., pembrolizumab) was 10 mg/kg, followed by 5 mg/kg every five days for a maximum of six treatments. […] The IgG1 isotype control antibody is the b12 antibody which is known to bind to HIV-1 gp120. […] Mice were housed in individually ventilated (IVC) cages, five mice per cage and identified by ear tags. […] Statistical comparison of tumor burden was performed using Mann-Whitney analysis on the last day that all treatment groups were intact. Kaplan-Meier analysis was performed based on tumor volume (>500 mm^3).

[2] = system: MDA-MB-231 (breast cell carcinoma); experiment: Western blot analysis of ER stress induction in MDA-MB-231 cells; format: cell-based; settings: MDA-MB-231, 18 hours (legend: 16 hours)
Protocol: Induction of cell death and release of ICD danger signals occurs concomitant with initiation of an ER stress response. Two Tissue Factor positive cell lines, HPAFII (pancreatic carcinoma) and MDA-MB-231 (breast cell carcinoma) were exposed to tisotumab vedotin ADC, an Isotype-MMAE ADC (H00-MMAE, IgG1 MMAE), or free MMAE for 18 hours and induction of ER stress monitored by western blot analysis. Phosphorylation of inositol-requiring transmembrane kinase/endonuclease 1 (IRE1) was detected after treatment with tisotumab vedotin ADC or MMAE free drug (FIG. 6). […] The ability for auristatins to prime the immune system to recognize tumor antigens opens the door for a myriad of combinatorial therapeutic options.

[3] = system: Tissue Factor positive cell lines; experiment: Cell death and release of ATP and HMGB1 from Tissue Factor positive cell lines; format: cell-based
Source text: Auristatin ADC payloads disrupt the microtubule networks resulting in altered ER localization and function, which ultimately results in ER stress.

## tisotumab vedotin: antibody-drug conjugate comprising an antibody that binds to tissue factor (TF), a protease-cleavable linker, and the microtubule disrupting agent MMAE
[1]; tisotumab vedotin alone 0.5 mg/kg
  tumor burden as assessed by tumor volume: efficiently reduced tumor burden
[1]; tisotumab vedotin alone 1.0 mg/kg
  tumor burden as assessed by tumor volume: efficiently reduced tumor burden
[2]
  ATF4 cleavage (PERK pathway): upregulation of ATF4 cleavage
  phosphorylation of IRE1: detected
  phosphorylation of JNK: increased phosphorylation
[3]
  cell death: undergo cell death
[3]; FIG. 5A
  ATP release/secretion: drove robust A) ATP secretion; also recorded: release the ICD related molecules ATP
[3]; FIG. 5B
  activity on multiple Tissue Factor positive cell lines: active on multiple Tissue Factor positive cell lines
[3]; FIG. 5C
  HMGB1 release/secretion: drove robust A) ATP secretion and C) HMGB1 release; also recorded: release the ICD related molecules ATP (FIG. 5A) and HMGβ1
